Experimental findings from patent publication US20240148821A1, “PHARMACEUTICAL USE OF CYCLIC PEPTIDE COMPOUND” (CHUGAI SEIYAKU KABUSHIKI KAISHA, priority 2021, published 2024) are described below.

Experiment [1] addresses protein-protein interaction between Kras and SOS1 (biotin-tagged human Kras loaded with GDP, His-tagged human SOS1) (Homo sapiens (Human), UniProt P01116, G12D). Briefly: Protein-protein interaction inhibition between Kras and SOS1 (KrasG12D-SOS PPI) using AlphaScreen.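 Note: kras produced in E. coli, Ni-coupled donor beads and streptavidin acceptor beads, excitation 680 nm with emission detected at 520–620 nm via singlet oxygen transfer.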 Type of experiment: biochemical. The note with it: AlphaScreen; biotin-tagged human Kras loaded with GDP, His-tagged human SOS1; read-out: KRAS G12D-SOS PPI IC50.

For experiment [2], the system named is Human pancreatic cancer cell line AsPC-1 (G12D mutation Kras). Briefly: AsPC-1 cell growth inhibition (AsPC-1 CGI). Particulars: read-out: AsPC-1 cell growth inhibition, 50% growth inhibitory concentration (IC50 value); 96 hours, CellTiter-Glo, values classified in ranges. In kind it is cell-based.
Procedure: Test compounds were serially dilated with dimethyl sulfoxide, and 200 nL was then dispensed to a U-bottom 96-well plate using Labcyte Echo. […] The cell suspension was dispensed to a. plate containing a test compound at 100 μL per well and incubated at 37° C. in a 5% carbon dioxide gas incubator. 96 hours later, 80 μL of CellTiter-Glo (Promega) was added to each well and fluorescence was measured.

Bridge positions count the residues as written; N and C are the ends. Square brackets hold non-standard residues; d marks the D form. Peptide text beside a SMILES is read from it. * marks the point of attachment. hPhe(3-Cl-4-CF3) = N[C@@H](CCc1ccc(C(F)(F)F)c(Cl)c1)C(=O)O; hPhe(3-F,4-CF3) = N[C@@H](CCc1ccc(C(F)(F)F)c(F)c1)C(=O)O; hPhe(4-CF3) = N[C@@H](CCc1ccc(C(F)(F)F)cc1)C(=O)O; NMePhe(4-Cl) = CN[C@@H](Cc1ccc(Cl)cc1)C(=O)O; NMeGly(cPent) = CN[C@H](C(=O)O)C1CCCC1; NMeCha = CN[C@@H](CC1CCCCC1)C(=O)O; Hyp = O=C(O)[C@@H]1C[C@@H](O)CN1; NMeF = CN[C@@H](Cc1ccccc1)C(=O)O; NMeI = CC[C@H](C)[C@H](NC)C(=O)O; NMeD = CN[C@@H](CC(=O)O)C(=O)O; CH2CONHtBu = CC(C)(C)NC(=O)C*; NMeL = CN[C@@H](CC(C)C)C(=O)O; NMeV = CN[C@H](C(=O)O)C(C)C; d(β3hA) = C[C@@H](N)CC(=O)O; Azetidin(1-yl) = C1CN(*)C1; NMeS = CN[C@@H](CO)C(=O)O; Pip = O=C(O)[C@@H]1CCCCN1; Morpholide = C1CN(*)CCO1; NMeA = CN[C@@H](C)C(=O)O; NMeAib = CNC(C)(C)C(=O)O; Nle = CCCC[C@H](N)C(=O)O; Piperidide = C1CCN(*)CC1; Ac5c = NC1(C(=O)O)CCCC1; Aze = O=C(O)[C@@H]1CCN1; Aib = CC(C)(N)C(=O)O; Isopentyl = CC(C)CC*; NEtG = CCNCC(=O)O; Sar = CNCC(=O)O A value given as a limit tells only on which side of the number the result lay.

On to `CC[C@H](C)[C@@H]1NC(=O)[C@H](CC(C)C)N(C)C(=O)C[C@@H](C(=O)N2CCOCC2)N(C)C(=O)[C@H](C2CCCC2)N(C)C(=O)C2(CCCC2)NC(=O)[C@@H]2CCCN2C(=O)[C@H](CCc2ccc(C(F)(F)F)c(Cl)c2)NC(=O)CN(C)C(=O)[C@H](C2CCCC2)N(C)C(=O)[C@@H]2CCN2C(=O)[C@H](C)N(C)C1=O` [Compound 302] ([NMeL]I[NMeA][Aze][NMeGly(cPent)][Sar][hPhe(3-Cl-4-CF3)]P[Ac5c][NMeGly(cPent)][NMeD]-Morpholide; lactam N-11), for which the IC50 in experiment [1] was 0.68 nM; in experiment [2] it was ≤ 20 nM.

Consider `CCO[C@@H]1C[C@H]2C(=O)NC3(CCCC3)C(=O)N(C)[C@@H](C3CCCC3)C(=O)N(C)[C@H](C(=O)N(C)C)CC(=O)N(C)[C@@H](CC(C)C)C(=O)N[C@@H]([C@@H](C)CC)C(=O)N(C)[C@@H](C)C(=O)N3CC[C@H]3C(=O)N(C)[C@@H](CC3CCCCC3)C(=O)N(C)CC(=O)N[C@@H](CCc3ccc(C(F)(F)F)c(F)c3)C(=O)N2C1` [Compound 1231] ([NMeL]I[NMeA][Aze][NMeCha][Sar][hPhe(3-F,4-CF3)][Hyp](Et)[Ac5c][NMeGly(cPent)][NMeD]-NMe2; lactam N-11), for which the IC50 in experiment [1] was 0.59 nM; in experiment [2], ≤ 20 nM.

For the molecule `CC[C@H](C)[C@@H]1NC(=O)[C@H](CC(C)C)N(C)C(=O)C[C@@H](C)NC(=O)[C@H](C(C)C)N(C)C(=O)[C@H](Cc2ccccc2)N(C)C(=O)[C@H](CC(C)C)N(C)C(=O)[C@H](CCc2ccc(C(F)(F)F)cc2)NC(=O)CN(C)C(=O)[C@H](Cc2ccc(Cl)cc2)N(C)C(=O)CN(C)C(=O)CN(C)C1=O` [Compound 124] (cyclo(I[Sar][Sar][NMePhe(4-Cl)][Sar][hPhe(4-CF3)][NMeL][NMeF][NMeV][d(β3hA)][NMeL])), the values for the IC50 in experiment [1] and in experiment [2] were 140 nM and > 500 nM, respectively.

On to `CC[C@H](C)[C@@H]1NC(=O)[C@H](COCC(=O)NC(C)(C)C)N(C)C(=O)C[C@@H](C)NC(=O)[C@H](CC(C)C)N(C)C(=O)C(C)(C)NC(=O)[C@H](CC(C)C)N(C)C(=O)[C@H](CCc2ccc(C(F)(F)F)c(Cl)c2)NC(=O)CN(C)C(=O)[C@H](COCCC(C)C)N(C)C(=O)CN(C)C(=O)CN(CC)C1=O` [Compound 1495] (cyclo([Aib][NMeL][d(β3hA)][NMeS](CH2CONHtBu)I[NEtG][Sar][NMeS](Isopentyl)[Sar][hPhe(3-Cl-4-CF3)][NMeL])), for which the IC50 in experiment [1] was 120 nM; in experiment [2] it was > 500 nM.

`CC[C@H](C)[C@@H]1NC(=O)[C@H](CC(C)C)N(C)C(=O)C[C@@H](C(=O)N2CCC2)N(C)C(=O)[C@H]([C@@H](C)CC)N(C)C(=O)C2(CCCC2)NC(=O)[C@@H]2CCCN2C(=O)[C@H](CCc2ccc(C(F)(F)F)c(Cl)c2)NC(=O)CN(C)C(=O)[C@H](CC2CCCCC2)N(C)C(=O)[C@@H]2CCN2C(=O)[C@H](C)N(C)C1=O` [Compound 150] ([NMeL]I[NMeA][Aze][NMeCha][Sar][hPhe(3-Cl-4-CF3)]P[Ac5c][NMeI][NMeD]-{Azetidin(1-yl)}; lactam N-11): the values for the IC50 in experiment [1] and in experiment [2] were 1.3 nM and ≤ 20 nM, respectively.

Turning to `CCCC[C@@H]1NC(=O)[C@H](CCc2ccc(C(F)(F)F)c(Cl)c2)NC(=O)CN(C)C(=O)[C@H](CC2CCCCC2)N(C)C(=O)[C@@H]2CCN2C(=O)CN(C)C(=O)[C@H]([C@@H](C)CC)NC(=O)[C@@H]2CCCCN2C(=O)C[C@@H](C(=O)N2CCCCC2)N(C)C(=O)[C@H](CC(C)C)NC(=O)C(C)(C)N(C)C1=O` [Compound 760] ([Pip]I[Sar][Aze][NMeCha][Sar][hPhe(3-Cl-4-CF3)][Nle][NMeAib]L[NMeD]-Piperidide; lactam N-11), the IC50 in experiment [1] was 5.2 nM; in experiment [2], > 500 nM.
